From publication PMC5820112 (Journal of molecular and cellular cardiology, 2017)

How the values were obtained:
[1] = target: T1, CaMKIIδ (Ca2+/calmodulin-dependent protein kinase II delta) (Homo sapiens, UniProt Q13557); test: continuous coupled spectrophotometric kinase assay with autocamtide-3; type: biochemical
[2] = target: T1, CaMKIIδ (Ca2+/calmodulin-dependent protein kinase II delta); test: as above; type: biochemical; remark: listed apart in the source

T1 sequence (Q13557 2-499): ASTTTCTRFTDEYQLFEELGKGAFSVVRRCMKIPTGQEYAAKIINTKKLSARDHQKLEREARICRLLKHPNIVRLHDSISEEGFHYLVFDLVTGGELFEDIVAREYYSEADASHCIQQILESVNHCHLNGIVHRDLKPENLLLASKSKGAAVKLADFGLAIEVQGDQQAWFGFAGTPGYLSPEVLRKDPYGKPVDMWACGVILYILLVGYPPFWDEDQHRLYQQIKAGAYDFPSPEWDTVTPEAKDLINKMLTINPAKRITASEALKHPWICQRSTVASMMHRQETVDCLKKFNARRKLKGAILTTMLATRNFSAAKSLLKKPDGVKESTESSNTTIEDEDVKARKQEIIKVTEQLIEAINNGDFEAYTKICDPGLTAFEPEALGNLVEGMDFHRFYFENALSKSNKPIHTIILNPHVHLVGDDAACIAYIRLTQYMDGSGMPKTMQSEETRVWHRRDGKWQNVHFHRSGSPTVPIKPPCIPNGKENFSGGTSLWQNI

Compound	IC50 [1] [nM]	Ki [2] [nM]
COc1ccc(S(=O)(=O)N(CCO)c2ccccc2CN(C)C/C=C/c2ccc(Cl)cc2)cc1 [KN-93]	1400	
AS105		3
